Test results taken from US9884843B2 (Peloton Therapeutics, Inc., priority 2013, dated 2018).
“Also recorded” adds a separate entry of the source. Like-named read-outs stand apart in the source and are kept apart here.

Assays:
[1] = tested on: HIF-2α HIS TAG-PASB Domain; assay: biochemical; type: binding
Source text: (§1) The term “scintillation proximity assay” (SPA) refers to a homogenous assay in which light is emitted when a radiolabeled ligand is brought into close proximity to a radiosensitive bead. The assay typically contains a target protein that contains a tag (e.g., His Tag, Glutathione S-transferase Tag). The tag on the protein is used to bind the target protein to the scintillation bead. Radiolabeled ligand (e.g., labeled with tritium) that binds to the protein is now in close proximity to the bead, and when the raidolabel (e.g., tritium) decays, the high energy particle hits the bead resulting in the emission of light that is detected by a detector, such as photomultiplier tube or CCD camera. When unlabeled ligands or compounds that bind to the protein are used in the assay, they displace the radiolabeled ligand, resulting in loss of signal.
(§2) The total assay volume was about 100 μL in the following configuration: 2-μL compound in DMSO, 88 μL buffer with protein and probe and 10 μL of SPA beads. […] To each compound, 88 μL of the buffer solution was then added. […] The percent inhibition was determined and IC50 values were calculated using the Dotmatics system based on the following equation: % inhibition=[(high control−sample)/(high control−low control)]×100.

786-O-Hif-Luc cells = assay: Luciferase Assay (HIF responsive element reporter); type: cell-based; conditions: read-out: Mean Luciferease EC50
Method: A pool of infected cells were then selected against 2 μg/mL of puromycin (P8833, Sigma) for 10 days followed by limited dilution to select single clones.
Each concentration was tested in triplicate. After about 24 hours, luciferase activity was determined using ONE-Glo Luciferase Assay Reagent (E6110, Promega) following the manufacturer's recommended procedure. EC50 were calculated by using Dotmatics software.

[2] = tested on: HIF-2α and HIF-2α-regulated genes in 786-O xenograft; assay: In vivo PK/PD study: tumor mRNA levels by qRT-PCR; design: species or system SCID/Biege mice; conditions: 786-O xenograft mice, 10 mg/kg oral gavage three times at 12 hour intervals, 12 hours post last dose
Method: (§3) About 5×10^6 renal cell carcinoma 786-O tumor cells (ATCC® CRL-1932™, VHL and HIF-1α null cell line) in PBS and Matrigel (1:1 in volume) were injected subcutaneously in the right flanks of SCID/Biege mice at 6-7 weeks of age for xenograft development. When the xenografts reached about 450 mm^3 in size, the tumor-bearing mice were randomly divided into two groups (4 mice in each group). […] Animals were sacrificed at 12 hours post last dose. Tumors and plasma were collected from each animal. Total RNA was extracted from the tumors. The mRNA levels of HIF-2α and its respective target genes were determined by qRT-PCR.

[3] = tested on: renal cell carcinoma 786-O xenograft; assay: In vivo efficacy study, 786-O xenograft; design: species or system SCID/Biege mice
human VEGFA = assay: In vivo PK/PD study: plasma human VEGFA by ELISA; design: species or system SCID/Biege mice; conditions: 786-O tumor-bearing mice, 10 mg/kg oral gavage three times at 12 hour intervals
Method: as §3
The plasma level of human VEGFA was determined by ELISA assay.

[4] = tested on: VEGF in culture medium of 786-O cells; assay: VEGF ELISA Assay; type: cell-based
Method: Four hours later, serial dilutions of 10× compound stocks were made in growth medium from 500×DMSO stocks, and 20 μL of those 10× stocks were added to each well to make final concentrations as follows (μM): 20, 6.7, 2.2, 0.74, 0.25, 0.082, 0.027, 0.009, 0.003, 0.001, 0. Each concentration had duplicated wells. About twenty hours later, the growth medium was removed by suction and each well was supplied with 180 μL of growth medium. About 20 μl freshly-made 10× compound stocks were added to each well. […] The EC50 was calculated by GraphPad Prism using the dose-response-inhibition (four parameter) equation. The cell seeded plate was then subjected to CellTiter-Glo luminescence cell viability assay (Promega) by adding about 50 μL of Celltiter Glo reagent into each well and shaking the plate for 8 minutes at 550 rpm (Thermomixer R, Eppendorf). The luminescence signals were read in a plate reader (3 second delay, 0.5 second/well integration time, Synergy 2 multi Detection Microplate reader) immediately.

[5] = biological target: HIF-2α HIS TAG-PASB Domain (Homo sapiens, UniProt Q99814); assay: biochemical; type: binding
Sequence of HIF-2α HIS TAG-PASB Domain (Homo sapiens, UniProt Q99814) (Q99814 whole entry, looked up, the tested form may be a part): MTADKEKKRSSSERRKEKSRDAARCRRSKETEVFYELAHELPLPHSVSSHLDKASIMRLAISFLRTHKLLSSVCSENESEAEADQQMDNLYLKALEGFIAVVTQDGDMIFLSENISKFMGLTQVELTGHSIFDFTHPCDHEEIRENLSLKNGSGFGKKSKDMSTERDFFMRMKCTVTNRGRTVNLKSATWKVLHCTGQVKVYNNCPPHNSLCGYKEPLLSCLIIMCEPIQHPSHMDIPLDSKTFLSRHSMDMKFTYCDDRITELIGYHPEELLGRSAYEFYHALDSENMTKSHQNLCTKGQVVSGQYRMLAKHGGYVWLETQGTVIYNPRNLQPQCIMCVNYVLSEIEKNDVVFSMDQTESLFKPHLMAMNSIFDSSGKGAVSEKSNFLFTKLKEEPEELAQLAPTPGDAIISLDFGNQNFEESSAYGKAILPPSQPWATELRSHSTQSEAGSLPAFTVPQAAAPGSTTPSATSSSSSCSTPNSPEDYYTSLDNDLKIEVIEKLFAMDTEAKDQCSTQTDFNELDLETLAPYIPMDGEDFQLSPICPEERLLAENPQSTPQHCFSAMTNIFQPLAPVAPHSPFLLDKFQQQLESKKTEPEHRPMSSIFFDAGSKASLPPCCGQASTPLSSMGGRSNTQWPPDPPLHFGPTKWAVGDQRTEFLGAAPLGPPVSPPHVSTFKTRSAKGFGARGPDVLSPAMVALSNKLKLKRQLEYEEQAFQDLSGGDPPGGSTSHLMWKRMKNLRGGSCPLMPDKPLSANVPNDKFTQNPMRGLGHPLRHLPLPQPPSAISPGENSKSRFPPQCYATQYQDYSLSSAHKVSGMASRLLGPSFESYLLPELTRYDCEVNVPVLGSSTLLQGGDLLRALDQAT
Source text: as §1, §2

[6] = 786-O-Hif-Luc cells, about 24 hours
[7] = displacement of Compound 120 probe, mean, read-out: Mean SPA IC50
[8] = 24 h, 786-O-Hif-Luc cells, about 24 hours

| Structure (SMILES) | EC50 (786-O-Hif-Luc cells; [6]) | IC50 [1, 7] | IC50 [5, 7] | other results |
| --- | --- | --- | --- | --- |
| O=S1(=O)C[C@@H](O)c2c1ccc(Oc1cc(F)cc(Cl)c1)c2Br [(3S)-4-bromo-5-(3-chloro-5-fluoro-phenoxy)-1,1-dioxo-2,3-dihydrobenzothiophen-3-ol] |  |  |  | IC50 ([1]; unnumbered compounds listed by structure and name, read-out: IC50 value in SPA): > 100000 nM |
| N#Cc1cc(F)cc(Oc2ccc3c(c2C(F)F)[C@@H](O)C(F)(F)S3(=O)=O)c1 [Compound 3, (R)-3-((4-(Difluoromethyl)-2,2-difluoro-3-hydroxy-1,1-dioxido-2,3-dihydrobenzo[b]thiophen-5-yl)oxy)-5-fluorobenzonitrile] | 7 nM | […] |  | Tumor mRNA for HIF-1α and HIF-1α specific target genes (PGK1 and PDK1) [2]: no significant effect; also recorded: no significant changes; Tumor mRNA for HIF-2α and HIF-2α specific target genes (PAI-1 and CCND1) [2]: reduced; also recorded: significant reduction; Effect on tumor size ([3]; 10 mg/kg b.i.d. oral gavage for 21 days, versus vehicle): tumor size reduction and regression; also recorded: statistically significant reduction of tumor size; Tumor size Mean ± SEM ([3]; 10 mg/kg b.i.d. oral gavage, after 21 days of dosing): 57 ± 5.6 mm^3; Plasma level of human VEGFA (human VEGFA): reduced; also recorded: undetectable level |
| N#Cc1c(Oc2cc(F)cc(Cl)c2)ccc2c1C(O)CS2(=O)=O (stereo not shown) [Compound 7, 5-(3-chloro-5-fluorophenoxy)-3-hydroxy-2,3-dihydrobenzo[b]thiophene-4-carbonitrile 1,1-dioxide] | 450 nM |  |  | EC50 ([4]; Homo sapiens, 786-0): 330 nM |
| O=S1(=O)c2ccc(Oc3cc(F)cc(Cl)c3)c(Br)c2C(O)C1(F)F (stereo not shown) [Compound 9, 4-Bromo-5-(3-chloro-5-fluorophenoxy)-2,2-difluoro-3-hydroxy-2,3-dihydrobenzo[b]thiophene 1,1-dioxide] | 50 nM |  | 2 nM | EC50 ([4]; Homo sapiens, 786-0): 65 nM |
| N#Cc1c(Oc2cc(F)cc(Cl)c2)ccc2c1C(O)C(F)(F)S2(=O)=O (stereo not shown) [Compound 10, 5-(3-chloro-5-fluorophenoxy)-2,2-difluoro-3-hydroxy-2,3-dihydrobenzo[b]thiophene-4-carbonitrile 1,1-dioxide] | 4170 nM | 45 nM |  |  |
| Cc1c(Oc2cc(F)cc(Cl)c2)ccc2c1C(O)C(F)(F)S2(=O)=O (stereo not shown) [Compound 13, 5-(3-Chloro-5-fluorophenoxy)-2,2-difluoro-3-hydroxy-4-methyl-2,3-dihydrobenzo[b]thiophene 1,1-dioxide] |  | 15 nM |  | EC50 (786-O-Hif-Luc cells; 24 h): 450 nM |
| O=S1(=O)c2ccc(Oc3cc(F)cc(Cl)c3)cc2C(O)C1(F)F (stereo not shown) [Compound 16, 5-(3-Chloro-5-fluorophenoxy)-2,2-difluoro-3-hydroxy-2,3-dihydrobenzo[b]thiophene 1,1-dioxide] |  | 1880 nM |  |  |
| NC1c2c(ccc(Oc3cc(F)cc(F)c3)c2Br)S(=O)(=O)C1(F)F (stereo not shown) [Compound 30, 3-Amino-4-bromo-5-(3,5-difluorophenoxy)-2,2-difluoro-2,3-dihydrobenzo[b]thiophene 1,1-dioxide] | 1700 nM |  | < 5 nM |  |
| N=S1(=O)c2ccc(Oc3cc(F)cc(F)c3)c(Br)c2C(O)C1(F)F (stereo not shown) [Compound 31, 4-Bromo-5-(3,5-difluorophenoxy)-2,2-difluoro-3-hydroxy-1-imino-2,3-dihydro-1H-1λ^4-benzo[b]thiophene 1-oxide] |  |  | 4140 nM | EC50 (786-O-Hif-Luc cells; [8]): 540 nM |
| O=S1(=O)c2ccc(Oc3cncc(Cl)c3)c(C(F)F)c2C(O)C1(F)F (stereo not shown) [Compound 35, 5-((5-Chloropyridin-3-yl)oxy)-4-(difluoromethyl)-2,2-difluoro-3-hydroxy-2,3-dihydrobenzo[b]thiophene 1,1-dioxide] |  | 230 nM |  | EC50 (786-O-Hif-Luc cells; 24 h): 150 nM |
| N#Cc1cncc(Oc2ccc3c(c2C(F)F)C(O)C(F)(F)S3(=O)=O)c1 (stereo not shown) [Compound 37, 5-((4-(Difluoromethyl)-2,2-difluoro-3-hydroxy-1,1-dioxido-2,3-dihydrobenzo[b]thiophen-5-yl)oxy)nicotinonitrile] | 170 nM | 120 nM |  |  |
| N#Cc1cc(F)cc(Oc2ccc3c(c2C(F)F)C(=O)C(F)(F)S3(=O)=O)c1 [Compound 39, 3-((4-(Difluoromethyl)-2,2-difluoro-1,1-dioxido-3-oxo-2,3-dihydrobenzo[b]thiophen-5-yl)oxy)-5-fluorobenzonitrile] | 2790 nM | 2420 nM |  |  |
| [2H][C@@]1(O)c2c(ccc(Oc3cc(F)cc(C#N)c3)c2C(F)F)S(=O)(=O)C1(F)F [Compound 43, (R)-3-((4-(Difluoromethyl)-2,2-difluoro-3-hydroxy-1,1-dioxido-2,3-dihydrobenzo[b]thiophen-5-yl-3-d)oxy)-5-fluorobenzonitrile] | 6 nM | […] |  |  |
| N=S1(=O)c2ccc(Oc3cc(F)cc(F)c3)c(C(F)F)c2C(O)C1(F)F (stereo not shown) [Compound 53, 4-(difluoromethyl)-5-(3,5-difluorophenoxy)-2,2-difluoro-3-hydroxy-1-imino-2,3-dihydro-1H-1λ^4-benzo[b]thiophene 1-oxide] | 39 nM |  |  | EC50 [4]: 67 nM |
| O=S1(=O)c2ccc(Oc3cc(F)cc(Cl)c3)c(Br)c2[C@H](O)C1(F)F [Compound 59, (3S)-4-Bromo-5-(3-chloro-5-fluoro-phenoxy)-2,2-difluoro-1,1-dioxo-3H-benzothiophen-3-ol] | 170 nM |  | 60 nM |  |
| CC1(C)C(O)c2c(ccc(Oc3cc(F)cc(Cl)c3)c2Br)S1(=O)=O (stereo not shown) [Compound 60, 4-Bromo-5-(3-chloro-5-fluoro-phenoxy)-2,2-dimethyl-1,1-dioxo-3H-benzothiophen-3-ol] |  | 21900 nM |  |  |
| N#Cc1c(Oc2cc(F)cc(F)c2)ccc2c1[C@@H](O)CS2(=O)=O [Compound 68, (R)-5-(3,5-difluorophenoxy)-3-hydroxy-2,3-dihydrobenzo[b]thiophene-4-carbonitrile 1,1-dioxide] |  |  |  | EC50 (786-O-Hif-Luc cells; [8]): 370 nM; IC50 [5]: 125 nM |
| N#Cc1c(Oc2cccc(F)c2)ccc2c1[C@@H](O)CS2(=O)=O [Compound 76, (R)-5-(3-fluorophenoxy)-3-hydroxy-2,3-dihydrobenzo[b]thiophene-4-carbonitrile 1,1-dioxide] |  |  | 750 nM | EC50 (786-O-Hif-Luc cells; [8]): 490 nM |
| N#Cc1cncc(Oc2ccc3c(c2Br)[C@@H](O)C(F)(F)S3(=O)=O)c1 [Compound 78, (R)-5-((4-Bromo-2,2-difluoro-3-hydroxy-1,1-dioxido-2,3-dihydrobenzo[b]thiophen-5-yl)oxy)nicotinonitrile] |  |  | 120 nM | EC50 (786-O-Hif-Luc cells; [8]): 95 nM; EC50 ([4]; Homo sapiens, 786-0): 330 nM |
| C[C@@]1(O)c2c(ccc(Oc3cc(F)cc(C#N)c3)c2C#N)S(=O)(=O)C1(F)F [Compound 112, (R)-5-(3-cyano-5-fluorophenoxy)-2,2-difluoro-3-hydroxy-3-methyl-2,3-dihydrobenzo[b]thiophene-4-carbonitrile 1,1-dioxide] |  |  |  | EC50 (786-O-Hif-Luc cells; [8]): 18 nM; EC50 ([4]; Homo sapiens, 786-0): 31 nM |
| N#Cc1cc(F)cc(Oc2ccc3c(c2C#N)C(N)C(F)(F)S3(=O)=O)c1 (stereo not shown) [Compound 118, 3-Amino-5-(3-cyano-5-fluorophenoxy)-2,2-difluoro-2,3-dihydrobenzo[b]thiophene-4-carbonitrile 1,1-dioxide] |  |  | 1230 nM | EC50 (786-O-Hif-Luc cells; [8]): 4600 nM |
